From patent publication US6521215B2, “Compositions and methods for tooth treatment” (priority 1999, dated 2003)
Each block holds one molecule with its values, some of them ahead of it.

How the values were obtained:
[1] = Attin et al., 1997, cited from earlier work
[2] = enamel exposed to 10% carbamide peroxide; McCracken and Haywood, 1996; cited from earlier work
[3] = scanning electron microscope, 5000× magnification
[4] = Protease enhanced tooth whitening, shade comparison of left and right halves of the enamel surface in vitro; design: species or system human; conditions: protease slurry (papain in distilled water) alone vs untreated half of tooth
Procedure: In this experiment, specimens were prepared in vitro by dividing the enamel surface of the teeth into left and right halves with a visible light cured polymer. This allowed a shade comparison of one side to the other. Specimens were divided into two groups. In both groups, one side of the teeth received an application of protease. Protease slurry was prepared by mixing papain (papaya, crude, Type III) with distilled water and applied via a syringe tip applicator. One group of specimens was then immersed in 30% hydrogen peroxide solution. The other group received no further treatment. Thus, in the first group, one-half of the tooth was first treated with papain and then with hydrogen peroxide, and the second half of the tooth was treated with only hydrogen peroxide. In the other group, one-half of the tooth was treated with papain and the second half of the tooth was untreated.

Molecule: NC(N)=O.OO [carbamide peroxide]
enamel microhardness ([1]; 10% carbamide peroxide (Opalescence®)): significantly decreased | amount of calcium lost from enamel (average) [2]: 1.06 micrograms/mm^2

Molecule: F [fluoride]
hardness of bleached enamel specimens after application ([1]; high concentration fluoride application): restore hardness

microscopic pitting of the enamel surface [3]: not seen
Molecule: OO [hydrogen peroxide]

B1: papain (protein, UniProt P00784 134-345, looked up)
Papain: IPEYVDWRQKGAVTPVKNQGSCGSCWAFSAVVTIEGIIKIRTGNLNEYSEQELLDCDRRSYGCNGGYPWSALQLVAQYGIHYRNTYPYEGVQRYCRSREKGPYAAKTDGVRQVQPYNEGALLYSIANQPVSVVLEAAGKDFQLYRGGIFVGPCGNKVDHAVAAVGYGPNYILIKNSWGTGWGENGYIRIKRGTGNSYGVCGLYTSSFYPVKN
modifications: crude preparation
notes: Protease slurry prepared by mixing papain (papaya, crude, Type III) with distilled water
whitening effect (change in shade) of treated tooth side [4]: will remove stains and “whiten” a tooth
